Source: PMC10698726 (Molecular Pharmaceutics, 2023)
Like-named read-outs stand apart in the source and are kept apart here.

Assays:
OCT2 = target: T1, OCT2 (Homo sapiens, UniProt O15244); experiment: Inhibition of model substrate uptake in OCT2-overexpressing HEK293 cells
T1 sequence (O15244 1-555): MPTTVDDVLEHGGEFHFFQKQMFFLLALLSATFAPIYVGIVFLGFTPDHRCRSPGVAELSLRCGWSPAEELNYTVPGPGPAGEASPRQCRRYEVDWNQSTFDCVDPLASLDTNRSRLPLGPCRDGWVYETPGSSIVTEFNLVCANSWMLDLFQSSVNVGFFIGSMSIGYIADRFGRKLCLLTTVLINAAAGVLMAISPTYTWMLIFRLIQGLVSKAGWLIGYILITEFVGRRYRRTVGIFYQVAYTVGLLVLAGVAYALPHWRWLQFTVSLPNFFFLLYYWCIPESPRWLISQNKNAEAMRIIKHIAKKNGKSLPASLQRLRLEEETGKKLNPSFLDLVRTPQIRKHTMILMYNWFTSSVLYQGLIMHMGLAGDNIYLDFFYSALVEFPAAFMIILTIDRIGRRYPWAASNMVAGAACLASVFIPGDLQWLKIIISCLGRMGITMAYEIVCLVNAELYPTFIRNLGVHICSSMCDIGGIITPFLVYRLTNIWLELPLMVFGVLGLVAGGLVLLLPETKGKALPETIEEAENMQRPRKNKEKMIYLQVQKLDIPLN
Description: (§1) All experiments were carried out in transporter-overexpressing HEK293 cells. OCT1-, OCT2-, NET-, DAT-, and SERT-overexpressing cells as well as the empty-vector transfected control cell line were generated as described earlier,[26]−[28] whereas the OCT3-overexpressing HEK293 cells were generous gift of from Drs. Koepsell and Gorbulev (University of Würzburg, Germany). All cells were cultivated in Dulbecco’s modified Eagle’s medium (DMEM) supplemented with 10% (v/v) FCS, penicillin (100 U/mL), and streptomycin (100 μg/mL) and kept in culture for no longer than 30 passages.
(§2) As for the transport experiments, 300,000 HEK293 cells were plated in poly-D-lysine-coated 24-well plates 2 days ahead of the experiment. On every plate, two wells of empty vector (EV)-transfected cells were used as a control to account for the passive influx of the model substrate, and two wells of transporter-overexpressing cells were used to determine the noninhibited uptake of the model substrate. Cells were initially washed once with 37 °C HBSS+ and then incubated with 2 μM model substrate (0.2 μM for MPP^+ uptake by MATs) with and without 20 μM inhibitor for 5 min. For concentration-dependent inhibition experiments, the cells were incubated with increasing inhibitor concentrations. The incubation was terminated by aspiration of the buffer before cells were washed twice with ice-cold HBSS+ and lysed in 80% acetonitrile. Cell lysates were transferred into a black 96-well plate for the fluorescence measurement of ASP^+ or used for sample preparation for LC–MS/MS analysis. […] Fluorescence quantification was performed in technical duplicates.
(§3) Transporter-mediated net uptake was calculated as the difference between uptake in transporter-overexpressing cells and that in the empty-vector-transfected control. […] Vmax is the maximum transport velocity, while Km is defined as the substance concentration that is required to reach half of vmax. The ratio of vmax over Km is termed intrinsic clearance Clint. For inhibition experiments, the transport activity was calculated by using the following equation [drawing 1]
(§4) SubstrateEV refers to the passive uptake of model substrates into the control cells and substratenoninhibited is the uptake in transporter-overexpressing cells without the presence of any inhibitor. The percent inhibition values are then calculated as described in the following [drawing 2]
(§5) For concentration inhibition experiments, the transporter activity was plotted against the log10 of inhibitor concentrations, and the data were fitted by the following equation to determine IC50 values [drawing 3]
(§6) Y refers to the transporter activity, whereas Ymax is the maximum and Ymin is the minimal transporter activity. X is the log10 of inhibitor concentrations, IC50 is the half-maximal inhibitory concentration, and hill slope is the slope factor.

OCT1 = target: T2, OCT1 (Homo sapiens, UniProt O15245); experiment: Inhibition of model substrate uptake in OCT1-overexpressing HEK293 cells; format: cell-based; set-up: expressed in transfected cells; host or cells: HEK293; conditions: 5 min; for (S,S)-Ethambutol inhibition [%] / ASP+ inhibition [%] / Sumatriptan inhibition [%] / inhibition at 5 min, 20 μM: OCT1, 20 μM inhibitor; for inhibition at 5 min, 20 μM: human, OCT1-overexpressing HEK293 cells; for IC50: OCT1, Table S5, 2 μM ASP+ or ethambutol as model substrate, read-out: IC50
T2 sequence (O15245 1-554): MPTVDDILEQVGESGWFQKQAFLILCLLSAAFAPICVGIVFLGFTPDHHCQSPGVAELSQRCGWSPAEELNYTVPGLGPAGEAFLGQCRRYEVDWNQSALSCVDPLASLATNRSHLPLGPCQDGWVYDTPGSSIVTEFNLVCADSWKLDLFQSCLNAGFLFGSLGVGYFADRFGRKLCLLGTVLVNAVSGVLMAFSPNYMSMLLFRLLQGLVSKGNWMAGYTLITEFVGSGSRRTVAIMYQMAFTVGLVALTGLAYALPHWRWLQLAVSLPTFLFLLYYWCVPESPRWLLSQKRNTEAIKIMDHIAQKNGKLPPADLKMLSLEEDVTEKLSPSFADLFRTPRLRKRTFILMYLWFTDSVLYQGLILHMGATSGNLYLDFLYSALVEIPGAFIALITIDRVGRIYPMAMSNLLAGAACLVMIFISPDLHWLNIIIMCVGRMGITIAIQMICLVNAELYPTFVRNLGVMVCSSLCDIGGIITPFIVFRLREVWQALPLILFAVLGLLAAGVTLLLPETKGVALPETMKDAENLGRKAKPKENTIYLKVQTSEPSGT
Description: Koepsell and Gorbulev (University of Würzburg, Germany).
Fluorescence quantification was performed in technical duplicates.

OCT3 = target: T3, OCT3 (Homo sapiens, UniProt O75751); experiment: Inhibition of model substrate uptake in OCT3-overexpressing HEK293 cells; format: cell-based; conditions: for (S)-Zolmitriptan inhibition [%] / (S,S)-Ethambutol inhibition [%] / ASP+ inhibition [%]: OCT3
T3 construct: expressed in transfected cells; host or cells: HEK293
T3 sequence (O75751 1-556): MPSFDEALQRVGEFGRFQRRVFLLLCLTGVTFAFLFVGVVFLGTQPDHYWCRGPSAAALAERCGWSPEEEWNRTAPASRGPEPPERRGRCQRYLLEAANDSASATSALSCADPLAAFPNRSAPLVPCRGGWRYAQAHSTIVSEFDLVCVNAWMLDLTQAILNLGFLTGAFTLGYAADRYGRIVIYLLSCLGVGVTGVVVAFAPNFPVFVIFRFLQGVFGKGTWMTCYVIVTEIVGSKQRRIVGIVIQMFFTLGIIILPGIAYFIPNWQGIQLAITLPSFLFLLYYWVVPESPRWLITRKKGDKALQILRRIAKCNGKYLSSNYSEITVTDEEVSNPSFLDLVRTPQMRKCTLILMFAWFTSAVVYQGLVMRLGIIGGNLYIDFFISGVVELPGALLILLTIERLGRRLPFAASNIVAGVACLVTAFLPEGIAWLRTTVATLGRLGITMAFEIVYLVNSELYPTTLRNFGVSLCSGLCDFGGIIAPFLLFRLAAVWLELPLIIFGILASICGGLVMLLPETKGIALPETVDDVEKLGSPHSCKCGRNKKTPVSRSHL
Description: as §1, §2, §3, §4, §5, §6

[1] = human, OCT2-overexpressing HEK293 cells, pH 7.4, probe (S,S)-ethambutol (2 μM), (S,S)-Ethambutol inhibition [%], OCT2, 20 μM inhibitor, 2 μM (S,S)-ethambutol, 5 min
[2] = human, OCT2-overexpressing HEK293 cells, pH 7.4, probe ASP+ (2 μM), ASP+ inhibition [%], OCT2, 20 μM inhibitor, 2 μM ASP+, 5 min
[3] = human, OCT2-overexpressing HEK293 cells, pH 7.4, probe N-ethyllidocaine (2 μM), N-Ethyllidocaine inhibition [%], OCT2, 20 μM inhibitor, 2 μM N-ethyllidocaine, 5 min
[4] = 2 μM ASP+, mean of three experiments
[5] = 20 μM inhibitor, 2 μM (S)-zolmitriptan, 5 min
[6] = 20 μM inhibitor, 2 μM (S,S)-ethambutol, 5 min
[7] = 20 μM inhibitor, 2 μM ASP+, 5 min
[8] = OCT2, 20 μM inhibitor, 2 μM (S,S)-ethambutol, 5 min
[9] = OCT2, 20 μM inhibitor, 2 μM N-ethyllidocaine, 5 min
[10] = pH 7.4, probe (S,S)-ethambutol (2 μM), (S,S)-Ethambutol inhibition [%], 2 μM (S,S)-ethambutol
[11] = pH 7.4, probe ASP+ (2 μM), 2 μM ASP+, mean of three experiments, read-out: ASP+ inhibition [%]
[12] = pH 7.4, probe sumatriptan (2 μM), 2 μM sumatriptan, read-out: Sumatriptan inhibition [%]
[13] = HEK293, 5 min, read-out: (S)-Zolmitriptan inhibition [%]
[14] = HEK293, 5 min, read-out: (S,S)-Ethambutol inhibition [%]
[15] = HEK293, read-out: ASP+ inhibition [%]
[16] = IC50, OCT2, Table S5, 2 μM ASP+ as model substrate, 5 min
[17] = HEK293, 5 min, read-out: (S,S)-Ethambutol inhibition [%], OCT3, 20 μM inhibitor, 2 μM (S,S)-ethambutol, 5 min
[18] = HEK293, OCT3, 20 μM inhibitor, 2 μM ASP+, 5 min, read-out: ASP+ inhibition [%]
[19] = HEK293, 5 min, read-out: (S)-Zolmitriptan inhibition [%], OCT3, 20 μM inhibitor, 2 μM (S)-zolmitriptan, 5 min

| SMILES | inhibition at 5 min, 20 μM (OCT2; [1]) | inhibition at 5 min, 20 μM (OCT2; [2]) | inhibition at 5 min, 20 μM (OCT2; [3]) | (S,S)-Ethambutol inhibition [%] (OCT1; 2 μM (S,S)-ethambutol) | ASP+ inhibition [%] (OCT1; [4]) | (S)-Zolmitriptan inhibition [%] (OCT3; [5]) | inhibition at 5 min, 20 μM (OCT1; [10]) | inhibition at 5 min, 20 μM (OCT1; [11]) | inhibition at 5 min, 20 μM (OCT1; [12]) | inhibition at 20 µM (OCT3; [17]) | inhibition at 20 µM (OCT3; [18]) | inhibition at 20 µM (OCT3; [19]) | further results |
| --- | --- | --- | --- | --- | --- | --- | --- | --- | --- | --- | --- | --- | --- |
| C#CCN[C@H]1CCc2ccccc21 [(S)-Rasagiline] | 57% | 59.6% | 59.5% | 37.5% | 6.9% | 6.7% |  |  |  |  |  |  | Sumatriptan inhibition [%] (OCT1; 2 μM sumatriptan): 50.6%; (S,S)-Ethambutol inhibition [%] (OCT3; [6]): 8.8%; ASP+ inhibition [%] (OCT3; [7]): -7.7% |
| NC[C@@H](O)c1ccc(O)c(O)c1 [(S)-Norepinephrine] |  |  |  | 6.1% | -3.3% | -6.6% |  |  |  |  |  |  | (S,S)-Ethambutol inhibition [%] (OCT2; [8]): 5.1%; ASP+ inhibition [%] (OCT2; OCT2, 20 μM inhibitor, 2 μM ASP+, 5 min): 20.5%; N-Ethyllidocaine inhibition [%] (OCT2; [9]): 7.1%; Sumatriptan inhibition [%] (OCT1; 2 μM sumatriptan): 6.6%; (S,S)-Ethambutol inhibition [%] (OCT3; [6]): 12.5%; ASP+ inhibition [%] (OCT3; [7]): -3.5% |
| CNCC[C@@H](Oc1cccc2ccccc12)c1cccs1 [(R)-Duloxetine] | 33.2% | 53.3% | 50.1% |  |  |  | 85.1% | 41.3% | 86.8% |  |  |  | IC50 (OCT2; IC50): 25.3 µM; inhibition at 20 µM (OCT3; [13]): 1.6%; inhibition at 20 µM (OCT3; [14]): 16.7%; inhibition at 20 µM (OCT3; [15]): 3.8% |
| OC[C@H](O)CN1CCN(c2ccccc2)CC1 [(R)-Dropropizine] | 28% | 40.8% | 8% |  |  | -30.2% | 30.1% | 26.2% | 41% | 5.8% | 26.4% |  | IC50 (OCT2; [16]): 80.6 µM; selectivity ratio at 5 min (OCT2; human, OCT2-overexpressing HEK293 cells, pH 7.4): 1.4 |
| CCCN[C@@H]1CCc2nc(N)sc2C1 [(R)-Pramipexole] | 10.5% | 43.3% | 37.1% |  |  |  | 51.6% | 19.8% | 55.8% | 23.1% | 5.3% | 13% | IC50 (OCT2; [16]): 20.4 µM; IC50 (OCT1): 20.2 µM |
| C=C[C@H]1C[N@@]2CC[C@H]1C[C@H]2[C@H](O)c1ccnc2ccc(OC)cc12 [Quinine] | 13.4% | 76.9% | 33.7% |  |  |  | 54.8% | 15.5% | 38.2% | 46.2% | 10.3% | 32.1% | IC50 (OCT3; OCT3, Table S5, 2 μM ASP+ or ethambutol as model substrate, 5 min, read-out: IC50): 78.9 µM |
| N[C@@H]1CONC1=O [(R)-Cycloserine] |  | 12.3% | 13.6% | 17.6% | -0.8% | -0.4% |  |  | 28% | 7.4% | 17.8% |  | (S,S)-Ethambutol inhibition [%] (OCT2; [8]): 5.0% |
| CNCC[C@H](Oc1cccc2ccccc12)c1cccs1 [(S)-Duloxetine] | 19.4% | 70.2% | 46.1% |  |  |  | 86.9% | 43.3% | 88.5% |  |  |  | IC50 (OCT2; IC50): 16.6 µM; inhibition at 20 µM (OCT3; [13]): 19.6%; inhibition at 20 µM (OCT3; [14]): 25.2%; inhibition at 20 µM (OCT3; [15]): 2.4% |
| CN(C)CCO[C@](C)(c1ccccc1)c1ccccn1 [(R)-Doxylamine] | 26.2% | 73.2% |  |  |  |  | 96% | 63.6% | 90.8% | 23.4% | 12.2% | 17.7% | N-Ethyllidocaine inhibition [%] (OCT2; [9]): -13.8%; IC50 (OCT1): 22.3 µM |
